Experimental findings from US12616695B2, “Use of 5-amino-2,3-dihydro-1,4-phthalazinedione in the treatment of rare chronic inflammatory pulmonary diseases” (Metriopharm AG, priority 2020, dated 2026) are described below.

SMILES strings stand for the structures. Like-named read-outs stand apart in the source and are kept apart here.

The subject of the experiment is cigarette smoke-induced 3-nitrotyrosine formation in the lung parenchyma. As to conditions: for 3-nitrotyrosine stained surface area, mean ± SEM: n=5 mice, room air 0.24 ± 0.09, cigarette smoke + diluent 3.07 ± 0.39. As for the experimental part:
5-amino-2,3-dihydro-1,4-phthalazinedione sodium salt Form I was tested in an isolated, ventilated and perfused mouse lung system that was stimulated with cigarette smoke.
The isolated, ventilated and perfused mouse lung system (ILU) is an established model for studying acute effects of various conditions and drugs on lung parenchyma and vasculature. It is mainly used for examining effects of hypoxia and for evaluating the efficacy of potential drugs on the hypoxic pulmonary vasoreaction (cf. Weissmann et al. (2006) Proc Natl Acad Sci USA 103: 19093-19098).
C57BL/6J mice (n=25, 5 per group; male/female, 3-6 months, 20-30 g; Charles River GmbH, Sulzfeld, Germany) were anesthetized with a ketamine (100 mg/kg body weight) and xylazine (20 mg/kg body weight) intraperitoneal injection (Ceva Tiergesundheit GmbH, Dusseldorf, Germany) containing heparin (50 I.E. heparin/g body weight; Ratiopharm GmbH, Ulm, Germany). The lungs and the heart were removed from the chest cavity and placed on the ILU system (see FIGS. 1A and 1B). Lungs were ventilated in an isolated chamber using normoxic gas (21% O2, 5% CO2, 74% N2; 150 breaths per minute at the PEEP (positive end-expiratory pressure) of 3 cm H2O) and perfused with a modified Krebs-Henseleit buffer (120.0 mM NaCl, 4.3 mM KCl, 1.1 mM KH2PO4, 2.4 mM CaCl2, 1.3 mM MgCl2, 13.14 mM glucose, 0.25 mM hydroxyethyl starch 200000/0.5, 25.0 mM NaHCO3 adjusted to a constant pH range of […] L-arginine; Serag-Wissner GmbH & Co. KG, Naila, Germany) at a temperature of 37° C. Lung weight, right and left ventricle pressure, as well as ventilatory pressure were monitored and recorded during the whole experimental procedure. After 5-10 minutes, when the lung was properly flushed and all the parameters were stable, 5-amino-2,3-dihydro-1,4-phthalazinedione sodium salt was applied by adding 150 μl of a stock solution to 15 ml of the circulating perfusion buffer. The substance was applied 10 minutes prior to the first cigarette smoke application. Cigarette smoke was applied via trachea while lung is perfused with the buffer containing 5-amino-2,3-dihydro-1,4-phthalazinedione sodium salt. Cigarette smoke was prepared freshly before each application, by burning one cigarette (research cigarettes 3R4F, University of Kentucky, USA) in one minute using normoxic gas at the flow of 11/min and collected in a 1 I glass bottle containing 5 g silica gel for removing the moist from the cigarette smoke. 50 ml of the cigarette smoke were taken via a syringe and applied to the lung via trachea (FIG. 1A) in deep breaths (periodic inflation for 3-4 s) over a period of 5 min. The application was done manually while carefully monitoring the inspiratory pressure to avoid damage of the lung. The cigarette smoke application was repeated three times with a 1 hour break in-between.
Five treatment groups (n=5, respectively) were investigated: • A: room air exposure • B: cigarette smoke+diluent (buffer solution) • C: cigarette smoke+0.5 mM 5-amino-2,3-dihydro-1,4-phthalazinedione sodium salt • D: cigarette smoke+1 mM 5-amino-2,3-dihydro-1,4-phthalazinedione sodium salt • E: cigarette smoke+2 mM 5-amino-2,3-dihydro-1,4-phthalazinedione sodium salt
5-amino-2,3-dihydro-1,4-phthalazinedione sodium salt Form I was dissolved in water for injection (vehicle) at the required concentrations described above. Stock solutions were prepared in water for injection. Further 1:100 dilutions were made with modified Krebs-Henseleit buffer (see above). Stock solutions were stored at −70° C. in appropriate aliquots. The required amount of stock solution was thawed, and the corresponding working solution was prepared for immediate use.
One hour after the third cigarette smoke application lungs were removed from the system and fixed by inflating with formalin solution (via trachea) at the pressure of 12-15 cm H2O for two hours at room temperature.

As for `Nc1cccc2c(=O)[nH][nH]c(=O)c12.[Na]` [5-amino-2,3-dihydro-1,4-phthalazinedione sodium salt], the “effect on cigarette smoke induced 3-nitrotyrosine formation (in words)” value is, setting by setting: (0.5 mM in perfusion buffer (FIG. 2C)) “moderate effect”; (1 mM in perfusion buffer (FIG. 2D)) “almost completely abolished”; (2 mM in perfusion buffer (FIG. 2E)) “almost completely abolished”. Further, the “3-nitrotyrosine stained surface area, mean ± SEM” value came out at 2.24 ± 0.28 % area (cigarette smoke + 0.5 mM in perfusion buffer), 0.72 ± 0.26 % area (cigarette smoke + 1 mM in perfusion buffer) and 0.37 ± 0.13 % area (cigarette smoke + 2 mM in perfusion buffer). Besides, the “cigarette smoke-induced 3-nitrotyrosine formation in the lung parenchyma, conclusion (in words)” value (pre-treatment 10 minutes prior to the first cigarette smoke application, ILU model) is listed as “prevents cigarette smoke-induced 3-nitrotyrosine formation”. Further, the “ROS/RNS levels in cigarette smoke-stimulated mouse lung (in words)” value (summary over 0.5, 1 and 2 mM) is “dose-dependent reduction of ROS/RNS levels down to control levels”.
